US20250195463A1, “ORGANOMETALLIC COMPLEX, CONTROLLED-RELEASE MULTI-FUNCTIONAL DRUG, PHARMACEUTICAL COMPOSITION, PROCESSES FOR THE PREPARATION THEREOF AND THEIR USE” (FACULDADE DE CIÊNCIAS DA UNIVERSIDADE DE LISBOA, priority 2022, published 2025)
pIC50: −log10 of the molar value. Where two headings read alike, the source gives them in different places. Where a SMILES comes first, the peptide text is derived from it. [ ]: non-standard residue; d: D form. The star is where a group is joined. Levulinoyl = CC(=O)CCC(=O)*

Columns and labels:
MCF-7 (FGFR−) = experiment: MTT cytotoxicity assay; conditions: human, 48 h
Procedure: (§1) By way of example, the in vitro cytotoxicity of the conjugate RuPC1, complex 4 and peptide P2 was determined in four human breast cancer cell lines with different levels of expression of the receptor FGFR, namely MDA-MB-231 (FGFR−), MCF-7 (FGFR−), SK-BR-3 (FGFR+), and MDA-MB-134-VI (FGFR+). The cytotoxicity of RuPC1 was also determined in the stated cell lines at controlled pH 6.8 and 7.4. The cytotoxicity of the complexes 5, 8, 9, and the reference complex (2,2′-bipyridyl)(triphenylphosphane)(f-cyclopentadienyl)ruthenium(II) trifluoromethanesulfonate, [RuCp(PPh3)(bipy)][CF3SO3] (TM34) was only determined in the cell line MDA-MB-231. All the cell lines were from the American Type Culture Collection (ATCC) and were cultured in Dulbecco's Modified Eagle Medium+Glutamax-I (Gibco) supplemented with 10% fetal bovine serum (FBS) and 1% antibiotics, excepting the MDA-MB-134-VI for which it was used the double amount of FBS. The cell cultures were kept in an incubator Heraeus at 37° C. under humidified atmosphere at 5% CO2. The cell viability was evaluated resorting to the MTT ([3-(4,5-dimethylthiazol-2-yl)-2,5-diphenyltetrazolium bromide]) colorimetric assay, which is based on the reduction of the tetrazolium salt to purple formazan by mitochondrial dehydrogenases in metabolically active cells. For the assays, the cells were seeded in 96-well plates (2×10^4 to 3×10^4 cells/200 μL) and allowed to adhere overnight. The compounds were first dissolved in dimethyl sulfoxide to obtain 10 mM stock solutions, further used to prepare the working solutions, at 0.1 to 100 μM, by dilution in the cell culture medium. Alternatively, for the assays at controlled pH 6.8 and 7.4, RuPC1 was first dissolved in a solution of 15% dimethyl sulfoxide/85% phosphate buffer (10 mM in water) to obtain 1.5 mM stock solutions further incubated for 48 hours at both pH values prior to be used to prepare the working solutions, at 0.1 to 50 μM, by dilution in the cell culture medium. In both cases, after continuous exposure of the cells to the compounds for 48 h at 37° C., the medium was removed and the cells were incubated with 200 μL of MTT solution (0.5 mg/mL) for 3 h. Then, the solution was discarded and the purple formazan formed by the viable cells was dissolved in 200 μL of dimethyl sulfoxide. The cell viability (%) was determined relative to the control (cells incubated without compounds) by measuring the absorbance at 570 nm on a PowerWave Xs Bio-Tek Instruments plate spectrophotometer. The respective values of the half maximal inhibitory concentration (IC50) were calculated with the software GraphPad Prism. All the compounds were tested in at least two independent experiments, each comprising six replicates per concentration.

MDA-MB-134-VI (FGFR+) = experiment: MTT cytotoxicity assay; conditions: human, 48 h
Procedure: as §1

SK-BR-3 (FGFR+) = experiment: MTT cytotoxicity assay; conditions: human, 48 h
Procedure: as §1

MDA-MB-231 (FGFR−) = experiment: MTT cytotoxicity assay; conditions: 48 h
Procedure: as §1

[1] = test system: four human breast cancer cell lines with different levels of expression of the receptor FGFR; experiment: MTT cytotoxicity assay, comparisons across the cell line panel; format: cell-based; conditions: adopted experimental conditions (48 h)
Procedure: By way of example, the in vitro cytotoxicity of the conjugate RuPC1, complex 4 and peptide P2 was determined in four human breast cancer cell lines with different levels of expression of the receptor FGFR, namely MDA-MB-231 (FGFR−), MCF-7 (FGFR−), SK-BR-3 (FGFR+), and MDA-MB-134-VI (FGFR+). The cytotoxicity of RuPC1 was also determined in the stated cell lines at controlled pH 6.8 and 7.4. The cytotoxicity of the complexes 5, 8, 9, and the reference complex (2,2′-bipyridyl)(triphenylphosphane)(f-cyclopentadienyl)ruthenium(II) trifluoromethanesulfonate, [RuCp(PPh3)(bipy)][CF3SO3] (TM34) was only determined in the cell line MDA-MB-231. […] The cell viability was evaluated resorting to the MTT ([3-(4,5-dimethylthiazol-2-yl)-2,5-diphenyltetrazolium bromide]) colorimetric assay, which is based on the reduction of the tetrazolium salt to purple formazan by mitochondrial dehydrogenases in metabolically active cells. […] The cell viability (%) was determined relative to the control (cells incubated without compounds) by measuring the absorbance at 570 nm on a PowerWave Xs Bio-Tek Instruments plate spectrophotometer. The respective values of the half maximal inhibitory concentration (IC50) were calculated with the software GraphPad Prism. […]

CC(=O)CCC(=O)N[C@@H](C(=O)N[C@@H](CO)C(=O)N1CCC[C@H]1C(=O)N1CCC[C@@H]1C(=O)N[C@@H](CC(C)C)C(=O)N[C@H](C(=O)N[C@@H](CC(C)C)C(=O)NCC(=O)N[C@@H](CCC(N)=O)C(=O)N[C@@H](CC(C)C)C(=O)N[C@@H](CC(C)C)C(=O)N[C@@H](CO)C(N)=O)[C@@H](C)O)C(C)C [peptide P2, 4-oxopetanoyl-NH-^1valine-^2serine-^3proline-^4proline-^5leucine-^6threonine-^7leucine-^8glycine-^9glutamine-^10leucine-^11leucine-^12serine-CONH2] (Levulinoyl-[dV]SP[dP]LTLGQLLS-NH2)
pIC50 (MCF-7 (FGFR−)): < 4.00 | pIC50 (MDA-MB-134-VI (FGFR+)): < 4.00 | pIC50 (SK-BR-3 (FGFR+)): < 4.00 | pIC50 (MDA-MB-231 (FGFR−); human): < 4.00 | Cytotoxic activity in words [1]: did not show significant cytotoxic activity

O=S(=O)([O-])C(F)(F)F.[Ru+2].c1cc[cH-]c1.c1ccc(-c2ccccn2)nc1.c1ccc(P(c2ccccc2)c2ccccc2)cc1 [TM34, (2,2′-bipyridyl)(triphenylphosphane)(f-cyclopentadienyl)ruthenium(II) trifluoromethanesulfonate, reference compound]
pIC50 (MDA-MB-231 (FGFR−); read-out: Cytotoxic activity expressed as IC50, Table 5, MDA-MB-231, 37° C.): 6.28
